Biological target: T1, bovine COX-2 (Bos taurus, UniProt O62698)
T1 sequence (O62698 18-604): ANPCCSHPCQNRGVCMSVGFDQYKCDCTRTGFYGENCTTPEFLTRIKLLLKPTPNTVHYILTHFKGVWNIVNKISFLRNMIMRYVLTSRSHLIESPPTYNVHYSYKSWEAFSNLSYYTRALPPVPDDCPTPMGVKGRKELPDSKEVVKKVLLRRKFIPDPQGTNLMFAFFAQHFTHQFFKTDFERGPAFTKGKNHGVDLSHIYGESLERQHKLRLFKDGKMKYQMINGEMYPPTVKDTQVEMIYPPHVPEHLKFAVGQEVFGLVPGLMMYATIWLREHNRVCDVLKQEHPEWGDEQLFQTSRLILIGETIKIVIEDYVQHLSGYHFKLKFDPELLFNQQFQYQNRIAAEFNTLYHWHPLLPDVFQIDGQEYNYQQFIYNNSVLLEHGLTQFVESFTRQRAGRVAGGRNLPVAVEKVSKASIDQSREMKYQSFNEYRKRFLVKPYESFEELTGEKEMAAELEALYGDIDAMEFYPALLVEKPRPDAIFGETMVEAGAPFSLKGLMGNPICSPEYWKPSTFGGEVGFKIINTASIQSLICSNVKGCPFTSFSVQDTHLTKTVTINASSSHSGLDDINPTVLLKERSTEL
Assay: COX-2 inhibition assay, enzyme immunoassay (EIA) kit
Type: biochemical
Settings: in-vitro
Protocol: The ability of selected compounds to inhibit bovine COX-2 was determined using an enzyme immunoassay (EIA) kit (Cayman Chemical Company, Ann Arbor, MI, USA), according to the reported method. The activity was expressed as half-maximal inhibitory concentrations, IC50 (in μM), obtained after non-linear regression, using the program GraphPad Prism version 5.00 (GraphPad Software, San Diego, CA, USA).

Substance: salvianolic acid B [Compound 51]
- IC50: 10.5 µM

— publication PMC7072606, “Discrimination of Naturally-Occurring 2-Arylbenzofurans as Cyclooxygenase-2 Inhibitors: Insights into the Binding Mode and Enzymatic Inhibitory Activity” (Biomolecules, 2020)
